Legend:
[1] = target: T1, solubilized seatrout ovarian membrane progestin (20β-S) receptor (Cynoscion nebulosus, UniProt Q801D8); assay: [3H]20β-S binding to solubilized seatrout ovarian membrane progestin receptor (DCC assay; saturation, Scatchard, association/dissociation); parameters: species or system spotted seatrout (Cynoscion nebulosus)
T1 sequence (Q801D8 1-352): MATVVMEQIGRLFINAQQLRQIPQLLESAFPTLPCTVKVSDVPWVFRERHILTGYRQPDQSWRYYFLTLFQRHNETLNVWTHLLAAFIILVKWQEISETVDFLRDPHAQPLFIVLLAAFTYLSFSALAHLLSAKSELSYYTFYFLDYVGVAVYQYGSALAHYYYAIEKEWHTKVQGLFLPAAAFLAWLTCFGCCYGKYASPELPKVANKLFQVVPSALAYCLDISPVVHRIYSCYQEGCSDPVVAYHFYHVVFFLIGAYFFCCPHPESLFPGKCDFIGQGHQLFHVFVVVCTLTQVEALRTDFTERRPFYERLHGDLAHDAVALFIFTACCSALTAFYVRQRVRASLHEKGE
Procedure: 20β-S receptor binding in solubilized membrane preparations was assayed using dextran-coated charcoal (DCC) to separate bound from steroid. The incubation conditions were similar to those used for the intact membrane preparation with the exception that 100-fold excess unlabeled 20β-S was used to determine non-specific binding. The incubation was terminated by adding 1-ml ice-cold DCC suspension (0.1 g dextran T-70 and 1 g charcoal per 100 ml HA buffer). The tubes were vortexed and the reaction mixture was incubated on ice for 5 minutes to absorb free steroid followed by centrifugation at 3200 g for 10 minutes at 4° C. The radioactivities of the filters or supernatants were measured using Beckman LS 6000SC Scintillation Counter (Beckman Instruments Inc., Houston, Tex.).
Saturation kinetics of [^3H]20β-S binding to the solubilized membrane receptor was conducted with six radiolabeled 20β-S concentrations (range 0.25-10 nM) in the absence (total binding) or presence of 100-fold excess cold steroid (non-specific binding). The dissociation constant (Kd) and receptor concentration (Bmax) were calculated from Scatchard plots. One point assays were conducted with 5 nM radiolabeled 20β-S with or without 100-fold excess unlabeled steroid.
The rate of 20β-S association to the solubilized receptor was determined by measuring the specific binding of [^3H]20β-S after-incubation periods of 30 seconds to 24 hours. The rate of dissociation was determined by first allowing samples to equilibrate with tracer for 30 minutes before the addition of 100-fold excess unlabeled 20β-S and incubation for periods of 30 seconds to 24 hours.

[2] = target: T2, seatrout recombinant mPR produced in E. coli (Cynoscion nebulosus, UniProt Q801D8); assay: Steroid binding to recombinant seatrout mPR produced in E. coli (single-point, competition, saturation, kinetics); conditions: for specific binding of 3H-steroid (steroid specificity): single-point assay, 10 nM 3H-steroid with or without 100-fold excess non-radioactive steroid
T2 construct: The coding region of the steroid membrane receptor was amplified by PCR from a full-length cDNA plasmid clone; made in house; host or cells: E. coli BL21 (DE3), pET vector
T2 sequence (Q801D8 1-352): T1 sequence (Q801D8 1-352)
Procedure: The cloned membrane progestin receptor was expressed in E. coli and the binding of the recombinant protein to steroids was analyzed by a radiolabeled receptor assay.
(§1) The PCR products were purified by electrophoresis using low-melting gel and a QIAquick Gel Extraction Kit. The purified PCR product was ligated into a pET expression vector. The pET vector was transformed into BL21 (DE3) E. coli cells. The positive clones were purified and sequenced. The plasmid without an insert was used as control. Recombinant protein was induced with IPTG at 25° C. and soluble recombinant proteins were extracted and analyzed.
(§2) Initially, steroid specificity of the recombinant receptor was determined from single-point competition assays using 10 nM ^3H-steroid in the absence (total binding) or presence of 100-fold excess non-radioactive steroid (nonspecific binding, FIG. 8).
Full competition curves were generated with 10 nM 3H-progesterone (total binding) or in combination with 1 nM-10 μM of various steroids (FIG. 8).
(§3) Saturation kinetics of H^3-progesterone binding to the recombinant receptor were conducted with 7 progesterone concentrations (range 0.5-40 nM) in the absence (total binding) or presence of 1 μM excess cold steroid (nonspecific binding, FIG. 11).

E. coli control proteins = assay: Steroid binding to E. coli control proteins (vector without insert); conditions: for binding to the control proteins: single-point assay, 10 nM 3H-steroid
Procedure: as §1
as §2, with “8). […] No binding of P4 and 17-P to the control proteins was observed (FIG. 7).” for “8).”
as §3

[3] = target: T3, recombinant mouse testicular mSR (Mus musculus, UniProt Q80ZE5); assay: Saturation/Scatchard analysis of 3H-progesterone binding to recombinant mouse testicular mSR; conditions: Scatchard analysis
T3 construct: The coding region of the steroid membrane receptor was amplified by PCR from a full-length cDNA plasmid clone; made in house; host or cells: E. coli
T3 sequence (Q80ZE5 1-354): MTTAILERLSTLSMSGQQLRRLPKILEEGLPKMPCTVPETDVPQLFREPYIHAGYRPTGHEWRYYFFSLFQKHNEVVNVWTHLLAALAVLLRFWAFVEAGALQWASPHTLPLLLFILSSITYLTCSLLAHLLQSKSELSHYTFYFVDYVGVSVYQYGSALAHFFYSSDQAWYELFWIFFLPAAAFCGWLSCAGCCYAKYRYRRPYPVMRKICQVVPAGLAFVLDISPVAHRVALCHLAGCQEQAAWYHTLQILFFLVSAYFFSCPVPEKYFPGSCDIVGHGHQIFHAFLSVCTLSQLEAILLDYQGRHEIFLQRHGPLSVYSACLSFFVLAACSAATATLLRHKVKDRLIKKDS
Procedure: (§4) Receptor Binding of Human Membrane Steroid Receptors. Mouse testicular and human testicular and kidney mSR were expressed in E. coli and binding of the recombinant proteins to steroids was studied. The membrane steroid receptor from human brain was not expressed since the clone only contains part of the coding region.
Binding Characteristics of Mouse Testicular Membrane Steroid Receptor. Saturation kinetics of ^3H-progesterone binding to the recombinant mouse testicular mSR was conducted with 7 progesterone concentrations (range 0.5-40 nM) in the absence (total binding) or presence of excess cold steroid (nonspecific binding, FIG. 21).

[4] = target: T4, recombinant human testicular mSR (Homo sapiens, UniProt Q86WK9); assay: Saturation/Scatchard analysis of 3H-progesterone binding to recombinant human testicular mSR; conditions: Scatchard analysis
T4 construct: The coding region of the steroid membrane receptor was amplified by PCR from a full-length cDNA plasmid clone; made in house; host or cells: E. coli
T4 sequence (Q86WK9 1-346): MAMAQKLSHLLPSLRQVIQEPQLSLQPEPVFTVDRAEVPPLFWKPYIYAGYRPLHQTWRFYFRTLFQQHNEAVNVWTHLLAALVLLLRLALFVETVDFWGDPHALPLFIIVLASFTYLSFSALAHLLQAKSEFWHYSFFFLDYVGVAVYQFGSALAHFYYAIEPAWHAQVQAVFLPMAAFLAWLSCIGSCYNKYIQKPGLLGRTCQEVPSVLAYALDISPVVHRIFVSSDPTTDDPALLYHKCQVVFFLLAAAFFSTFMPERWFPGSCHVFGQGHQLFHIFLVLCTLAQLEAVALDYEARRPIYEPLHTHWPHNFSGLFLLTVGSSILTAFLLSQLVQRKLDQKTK
Procedure: as §4
(§5) Binding Characteristics of Human Testicular Membrane Steroid Receptor. Saturation kinetics of ^3H-progesterone binding to the recombinant human testicular mSR was conducted with 7 progesterone concentrations (range 0.5-40 nM) in the absence (total binding) or presence of 1 μM excess cold steroid (nonspecific binding, FIG. 22).

[5] = target: T5, recombinant human kidney mSR (Homo sapiens, UniProt Q9NXK6); assay: 3H-progesterone binding to recombinant human kidney mSR (saturation, kinetics, competition); conditions: for displacement of 3H-progesterone: competition curves, 10 nM 3H-progesterone, 1 nM-10 μM competitor
T5 construct: The coding region of the steroid membrane receptor was amplified by PCR from a full-length cDNA plasmid clone; made in house; host or cells: E. coli
T5 sequence (Q9NXK6 1-330): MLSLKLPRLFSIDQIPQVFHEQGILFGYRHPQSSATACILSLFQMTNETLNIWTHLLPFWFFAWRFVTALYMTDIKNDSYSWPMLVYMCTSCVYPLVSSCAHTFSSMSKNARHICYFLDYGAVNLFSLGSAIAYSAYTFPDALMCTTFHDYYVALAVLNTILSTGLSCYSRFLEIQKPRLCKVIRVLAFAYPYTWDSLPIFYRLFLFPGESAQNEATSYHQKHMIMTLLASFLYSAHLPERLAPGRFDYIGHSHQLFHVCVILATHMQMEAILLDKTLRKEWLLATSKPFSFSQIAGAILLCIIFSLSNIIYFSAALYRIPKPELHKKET
Procedure: as §4
as §5, with “Characters” for “Characteristics”, “Kidney” for “Testicular”, “kidney” for “testicular”, “23).” for “22).”
The specific binding dissociated quickly with a t1/2 dissociation of 2 minutes (FIG. 24).
Full competition curves were generated with 10 nM 3 H-progesterone (total binding) or in combination with 1 nM-10 μM of various steroids (FIG. 25, 26). […] This binding was very specific for 21 carbon steroids lacking a functional group at the 11 position.

In the case of `CC12CCC(=O)C=C1CCC1C2CCC2(C)C1CCC2(O)C(O)CO` (stereo not drawn) [20β-S, 17,20β,21-trihydroxy-4-pregnen-3-one], the Bmax ([1]; Scatchard analysis, [3H]20β-S) is reported as 0.204 pmol g^−1 ovary, the “time to full displacement” value ([1]; after 100-fold excess unlabeled 20β-S) is reported as ≤ 20 min and the “time to reach saturation of binding” value ([1]; equilibrium study) is reported as ≤ 15 min. The “concentration at which saturation was achieved” value ([1]; saturation analysis) was “approximately 10 nM” and the “specific binding of 3H-steroid (steroid specificity)” value (from here on “specific binding of 3H-steroid”) [2] was “did not show any specific binding”.
For `CC(=O)[C@H]1CC[C@H]2[C@@H]3CCC4=CC(=O)CC[C@]4(C)[C@H]3CC[C@]12C` [progesterone], the Kd [2] was 30 nM, the Bmax ([2]; Scatchard analysis, 3H-progesterone) was 0.49 nM and the “specific binding of 3H-steroid” value [2] was “Highest specific binding”. For the same compound, the “specific binding to E. coli control proteins” value (E. coli control proteins; saturation analysis, 3H-progesterone) was “no specific binding”, the “binding to the control proteins” value (E. coli control proteins) was “No binding” and the Bmax [3] was 0.304 nM. It also gave a Kd ([3]; 3H-progesterone 0.5-40 nM) of 29 nM, a Bmax [4] of 0.47 nM and a Kd ([4]; 3H-progesterone 0.5-40 nM) of 37 nM. The Bmax ([5]; Scatchard analysis) was 0.54 nM and the Kd ([5]; Scatchard analysis, 3H-progesterone 0.5-40 nM) was 28 nM.
With `C[C@]12CC(=O)[C@H]3[C@@H](CCC4=CC(=O)CC[C@@]43C)[C@@H]1CC[C@@H]2O` [11-ketotestosterone] the “specific binding of 3H-steroid” value [2] was “no specific binding”.
For `CC(=O)[C@@]1(O)CC[C@H]2[C@@H]3CCC4=CC(=O)CC[C@]4(C)[C@H]3CC[C@@]21C` [17-P, 17-hydroxyprogesterone], the “displacement of 3H-progesterone” value ([2]; competition curves, 10 nM 3H-progesterone, 1 nM-10 μM competitor) was “equipotent with P4”, the “specific binding of 3H-steroid” value [2] was “high affinity” and the “binding to the control proteins” value (E. coli control proteins) was “No binding”. The “displacement of 3H-progesterone” value [5] was “equipotent with P4”.
For `C[C@@H](O)[C@@]1(O)CC[C@H]2[C@@H]3CCC4=CC(=O)CC[C@]4(C)[C@H]3CC[C@@]21C` [17,20β-P, 17,20β-dihydroxy-4-pregnen-3-one], the “specific binding of 3H-steroid” value [2] was “did not show any specific binding”.
`C[C@]12CC[C@H]3[C@@H](CCC4=CC(=O)CC[C@@]43C)[C@@H]1CC[C@@H]2O` [testosterone] was tested, and the “specific binding of 3H-steroid” value [2] was “no specific binding”.
For Vitamin D, the “displacement of 3H-progesterone” value [5] was “no displacement”.
With `CC[C@H](C)[C@@H]1NC(=O)[C@H](Cc2ccc(O)cc2)NC(=O)[C@@H](N)CSSC[C@@H](C(=O)N2CCC[C@H]2C(=O)N[C@@H](CC(C)C)C(=O)NCC(N)=O)NC(=O)[C@H](CC(N)=O)NC(=O)[C@H](CCC(N)=O)NC1=O` [oxytocin] the “displacement of 3H-progesterone” value [5] was “no displacement”.
`C[C@]12CCC(=O)C[C@@H]1CC[C@@H]1[C@@H]2CC[C@]2(C)[C@@H](O)CC[C@@H]12` [5α-dihydrotestosterone] was tested, and the “specific binding of 3H-steroid” value [2] was “no specific binding”.

Reference: patent publication US20030170791A1, “Gene family encoding membrane steroid receptors” (priority 2001, published 2003)
